Data reported in ChEMBL document CHEMBL5154907, “Discovery and Anti-Inflammatory Activity Evaluation of a Novel CDK8 Inhibitor through Upregulation of IL-10 for the Treatment of Inflammatory Bowel Disease In Vivo” (J Med Chem, 2022).

Legend:
BMDC = assay: Anti-inflammatory activity against R848-stimulated mouse BMDC cells assessed as upregulation of IL-10 production at 5 uM treated for 24 hrs followed by R848 stimulation for 12 hrs by ELISA method (reference value: 100 %); assay type: functional; conditions: time 36 hrs
CDK8/Cyclin C = CDK8/Cyclin C (Homo sapiens, UniProt P49336); assay: Inhibition of recombinant full length His tagged human CDK8/Cyclin C expressed in Baculovirus incubated for 60 mins in presence of ATP by ADP-Glo kinase assay
[1] = Stability of compound in human liver microsome assessed as intrinsic clearance by HPLC analysis; assay type: ADME; conditions: liver microsomes, read-out: CLH
[2] = target: CDK8/Cyclin C (Homo sapiens) (UniProt P49336+P24863); assay: Inhibition of recombinant full length His tagged human CDK8/Cyclin C expressed in Baculovirus at 200 nM incubated for 60 mins in presence of ATP by ADP-Glo kinase assay
[3] = Transcriptional activity of AP-1 in R848-stimulated mouse BMDC cells transfected with pAP1-luc assessed as ratio of AP-1 activity at 5 uM treated for 24 hrs followed by R848 stimulation for 4 hrs by luminescence based microplate reader analysis relative to control; assay type: functional; conditions: time 28 hrs

Chain of CDK8/Cyclin C (P49336 whole entry): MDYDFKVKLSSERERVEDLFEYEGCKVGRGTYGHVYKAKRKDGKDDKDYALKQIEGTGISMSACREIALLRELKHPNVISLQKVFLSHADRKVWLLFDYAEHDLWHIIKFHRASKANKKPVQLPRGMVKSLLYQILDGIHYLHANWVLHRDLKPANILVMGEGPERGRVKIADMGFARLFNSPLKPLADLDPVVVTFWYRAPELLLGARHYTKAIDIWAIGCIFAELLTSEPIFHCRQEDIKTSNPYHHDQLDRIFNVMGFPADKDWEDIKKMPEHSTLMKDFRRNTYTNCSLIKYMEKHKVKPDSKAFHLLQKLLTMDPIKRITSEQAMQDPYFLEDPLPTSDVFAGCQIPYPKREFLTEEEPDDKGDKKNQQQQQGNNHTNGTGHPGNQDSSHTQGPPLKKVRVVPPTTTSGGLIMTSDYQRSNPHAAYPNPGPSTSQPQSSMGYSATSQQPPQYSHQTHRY
Chain of CDK8/Cyclin C (P24863 whole entry, further chain): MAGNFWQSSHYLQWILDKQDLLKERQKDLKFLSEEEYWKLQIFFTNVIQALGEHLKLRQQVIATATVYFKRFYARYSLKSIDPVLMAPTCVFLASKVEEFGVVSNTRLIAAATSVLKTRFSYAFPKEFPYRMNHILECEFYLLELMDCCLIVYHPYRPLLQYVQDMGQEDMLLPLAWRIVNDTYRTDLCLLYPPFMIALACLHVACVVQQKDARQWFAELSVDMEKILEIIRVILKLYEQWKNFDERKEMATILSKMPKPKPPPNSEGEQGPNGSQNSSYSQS

| SMILES | IC50 (CDK8/Cyclin C) [nM] | microsomal CLint [1] [µL/min/mg] | inhibition [2] [%] | Activity (BMDC) [%] | Ratio [3] |
| --- | --- | --- | --- | --- | --- |
| Cc1ccccc1NC(=O)c1cncc(-c2ccc(C(=O)N3CCNCC3)cc2)c1 | 70 | 13 | 81 | 70 | 1.5 |
| O=C(Nc1ccccc1)c1cncc(-c2ccc(C(=O)N3CCNCC3)cc2)c1 | 80 | 7.3 | 79 | 76 | 2.8 |
| Nc1ncc(C(=O)Nc2ccccc2)cc1-c1ccc(C(=O)N2CCNCC2)cc1 | 260 | – | 44 | 56 | 1.7 |
| O=c1cc(-c2ccccc2)oc2cc(-c3ccc(CN4CCNCC4)cc3)cc(O)c12 | 144 | 15.9 | 69 | 33 | 1.9 |
| O=C(c1ccc(-c2cc(O)c3c(=O)cc(-c4ccccc4)oc3c2)cc1)N1CCNCC1 | 72 | 12.9 | 75 | 43 | 2.4 |
| CC(=O)Nc1ccc(NC(=O)c2cncc(-c3ccc(C(=O)N4CCNCC4)cc3)c2)cc1 | 1050 | – | 35 | 37 | 1.1 |
| O=C(Nc1ccccc1)c1ccnc(-c2ccc(C(=O)N3CCNCC3)cc2)c1 | 80 | 10.9 | 65 | 29 | 2.4 |
| O=C(Nc1ccc(Cl)cc1)c1cncc(-c2ccc(C(=O)N3CCNCC3)cc2)c1 | 1470 | – | 20 | 33 | 1.55 |
| COc1c(O)cc(O)c2c(=O)cc(-c3ccccc3)oc12 [WOGONIN] | 5900 | 11.3 | – | 65 | 1.4 |
| COc1cccc(NC(=O)c2cncc(-c3ccc(C(=O)N4CCNCC4)cc3)c2)c1 | 65 | 7 | 80 | 65 | 2 |
| Nc1ccc(NC(=O)c2cncc(-c3ccc(C(=O)N4CCNCC4)cc3)c2)cc1 | 3650 | – | 34 | 30 | 1.72 |

The remaining compounds from weak to strong by IC50 (CDK8/Cyclin C), led by results:

| IC50 (CDK8/Cyclin C) [nM] | microsomal CLint [1] [µL/min/mg] | inhibition [2] [%] | SMILES | Activity (BMDC) [%] | Ratio [3] |
| --- | --- | --- | --- | --- | --- |
| 1140 | – | 24 | O=C(Nc1cccc(C(F)(F)F)c1)c1cncc(-c2ccc(C(=O)N3CCNCC3)cc2)c1 | 42 | 1.41 |
| 947 | – | 27 | Nc1ccccc1NC(=O)c1cncc(-c2ccc(C(=O)N3CCNCC3)cc2)c1 | 24 | 1.63 |
| 530 | 9.5 | 30 | O=C(Nc1ccccc1)c1cc(O)cc(-c2ccc(C(=O)N3CCNCC3)cc2)c1 | 82 | 1.3 |
| 234 | 10.9 | 46 | O=c1cc(-c2ccccc2)oc2cc(-c3ccccc3)cc(O)c12 | – | 1.5 |
| 214 | – | 57 | O=C(Nc1ccccc1)c1ccc(O)c(-c2ccc(C(=O)N3CCNCC3)cc2)c1 | 26 | 1.2 |
| 210 | – | 54 | O=C(Nc1ccccc1)c1cc(-c2ccc(C(=O)N3CCNCC3)cc2)ccc1O | 40 | 1.2 |
| 190 | 13.7 | 53 | O=c1cc(-c2ccccc2)oc2cc(-c3ccc(N4CCNCC4)cc3)cc(O)c12 | 80 | 1.5 |
| 155 | – | 62 | Cc1ccc(-c2cc(O)c3c(=O)cc(-c4ccccc4)oc3c2)cc1 | 83 | 2.6 |
| 112 | – | 64 | Nc1ccc(-c2cc(O)c3c(=O)cc(-c4ccccc4)oc3c2)cc1 | 21 | 2.6 |
| 104 | – | 73 | CCc1cccc(NC(=O)c2cncc(-c3ccc(C(=O)N4CCNCC4)cc3)c2)c1 | 34 | 1.7 |
| 96 | – | 71 | CCc1ccc(NC(=O)c2cncc(-c3ccc(C(=O)N4CCNCC4)cc3)c2)cc1 | 40 | 1.9 |
| 87 | 10.4 | 78 | O=C(Nc1ccccc1)c1cc(-c2ccc(C(=O)N3CCNCC3)cc2)ccn1 | 72 | 2.3 |
| 81 | – | 77 | COc1ccc(NC(=O)c2cncc(-c3ccc(C(=O)N4CCNCC4)cc3)c2)cc1 | 74 | 1.7 |
| 75 | – | 76 | Cc1cccc(NC(=O)c2cncc(-c3ccc(C(=O)N4CCNCC4)cc3)c2)c1 | 62 | 1.6 |
